These are literature values, as cited in patent US20230036624A1, “RETINOL-BASED COMPOSITION” (L'OREAL, priority 2019, published 2023).

For the series, the system named is human epidermal keratinocytes grown in monolayer culture.

With `CCCCCCCCCCCCCCCC(=O)OC/C=C(C)/C=C/C=C(C)/C=C/C1=C(C)CCCC1(C)C` [retinyl palmitate], the “effectiveness compared with retinol, measured at the transcriptomic level” value is recorded as “less effective than retinol”.
